The source of these data is patent publication US20200054271A1, “COMPUTER-BASED LIVER MODEL” (priority 2017, published 2020).

Data set [1] has as its system bile canaliculi (BC) network. The experiment in a line: BC network geometry (BC radius) from 3D reconstruction of CD13-stained fixed liver tissue sections. It counts as in vivo, mouse. How it is done:
(§1) As controls, mice were administered 0.9% saline.
All steps were performed at room temperature.
Fixed tissue was imaged with a Zeiss laser scanning microscope 780 NLO using a 63×1.3 numerical aperture (NA) glycerol immersion objective (Zeiss), a Chameleon Ti-Sapphire 2-photon laser (780 nm), 488 and 561 laser lines and Gallium arsenide phosphide (GaAsp) detectors.
3D reconstructions of the BC network were performed on high-resolution IF image stacks of fixed liver tissue stained for the apical marker CD13 (voxel size: 0.28×0.28×0.3 μm, 70-80 μm in depth). A tile of 2×1 image stacks was stitched to cover an entire CV-PV axis. Images were processed, analyzed and reconstructed using the software MotionTracking as described in (Morales-Navarrete et al., 2015). In brief, images were segmented using a local thresholding algorithm (maximum entropy), segmented objects were corrected for artefacts using standard morphological operations (opening/closing) and the triangulation mesh of the segmented surfaces was generated by the cube marching algorithm. The active mesh was tuned to align the triangle mesh vertexes to the maximum gradient of fluorescence intensity in the original image. A representation of the skeletonized image was generated using a 3D graph describing the geometrical and topological features of the BC network. For the spatial analysis of BC radius, porosity and network density, the CV-PV axis was computationally divided into 20 equidistant zones based on the distance dof each position x from the CV (dCV) and PV (dPV):
Then, the average radius and porosity was determined per zone. For the radius, the minimal distance of each node of the central line of the BC network was quantified in the xy-plane. For the BC network density, the network length per tissue volume was calculated. For the tissue porosity, […]

The test system of data set [2] is bile flow in the BC network. The data set is described as follows: Bile velocity and apical CF transport by intravital microscopy (IVM) of CF(DA) transport with 3-compartment model. It counts as in vivo, mouse. How it is done: as §1
The objective was heated to 37° C.
Quantification of the CF intensity in the hepatocyte cytoplasm and BC from IVM movies was performed using the image analysis software MotionTracking. Following correction for shift, IVM movies contained 16-21 frames per stack, covering 15-20 μm in z. To avoid liver damage from photo-toxicity, IVM movies were acquired with minimum laser intensities resulting in low signal-to-noise ratio. […] Therefore, we used the modified Mean-Shift algorithm to separate the CF fluorescence from the background. The result of the background/foreground discrimination was checked manually. The BC were detected in three steps. First, the image was convolved with Laplacian of Gaussian. Second, pixels with an intensity >2 standard deviations of the local noise were defined as potential BC. The local noise was determined from the local intensity minimums in at least one of 4 discrete directions. Third, along the line of the local maximum intensity direction of a BC, pixels that co-localized with sharp intensity transitions between the cytoplasm and sinusoids were excluded from the BC compartment. For all compartments (cytoplasm, BC and background), the mean intensity was calculated. To avoid mixing of compartments from light scattering of bright objects (BC to cytoplasm and cytoplasm to background), the area within the radius of 2 pixels from the object border was excluded from the calculation.
The transport of CF(DA) from the blood into and through the biliary network was described in a mathematical model that considers 3 hepatic compartments: the blood (s), hepatocytes cytoplasm (c) and bile canaliculi (b) (see FIG. 2F). Dye propagation through these three compartments was modelled for three spatially distinct zones within the liver lobule: The CV, MD and PV zone as defined in FIG. 2C. The different zone geometries of the kite-shaped CV-PV axis were accounted for by introducing respective geometry factors. The model considers that only a fraction of the injected CFDA is delivered to the liver, whereas the rest is cleared by other tissues at rate κclear. The injection of CFDA into the blood circulation is described by Pulse(t). It is defined by the time point of injection start (τ1) and the injection duration (τ2) assuming that CFDA is injected with constant rate in time t>τ1 and <τ1+τ2. Both τ1 and τ2 were fitted by the model with boundary intervals 40-80 sec (τ1) and 20-60 sec (τ2). In the liver, the model considers that CFDA is taken up from the blood with a permeability coefficient Perm=3 sec^−1 (according to (Breeuwer et al., 1995), considering a mammalian plasma membrane thickness of 4 nm), converted into CF by cytoplasmic esterases with cleavage rate κcleav and secreted by apical transporters with transporter activity κpump. To account for the spatial heterogeneity of esterase and transporter levels within the CV-PV axis, the amounts of both esterases (qi) and apical transporters (q1i) were determined for each zone (i=cv, md, pv). The model further considers passive back flux of CF from the BC into the hepatocyte cytoplasm at rate κli. The bile canaliculi compartment of the three zones is connected, occurs unidirectional and sequential from the CV to the MD with transport rate
Bile flow velocity vi at the interfaces of the lobule zones was estimated from the volume flux rates
considering the size of the zone volumes V and zone boundaries Ai (i=cv, md, pv) as well as a CV-PV axis distance L of 229 μm: […]

For data set [3] the following is noted: from the literature; cited from earlier work.
For data set [4] the following is noted: mouse, in vivo, iv.
Experimental: Mouse anaesthesia was induced with 3-4% isoflurane/0.3% oxygen and maintained by i.p. injection of ketamine/xylazine throughout the experiment. Mice received 20 U of heparin dissolved in 0.9% (w/v) NaCl by i.p. injection to prevent ischemia of the liver during the course of imaging. To visualize hepatocyte nuclei, Hoechst 33258 dissolved in 0.9% (w/v) NaCl was administered retro-orbitally at a dose of 2 mg/kg and in a total volume of 50 μl. To expose the liver for imaging, the abdominal fur was removed using an electric shaver and a small transversal incision of 1 cm was made at the height of the sternum to expose the left lateral liver lobe using a surgical scissor and cauterizer. The mouse was positioned on the stage of an IX81 inverted confocal microscope equipped with a Fluoview 1000 scanning head (Olympus America) and a heat-adjustable UPLSAPO30X, 30×1.05 NA silicon oil objective (Olympus). The objective was heated to 37° C. To avoid compression of the liver lobe and to stabilize the tissue, the stage was designed with a small hole in the center into which the left lateral lobe was carefully placed. The residual volume of the hole was filled with a water based and transparent 1% carbomer gel (0.3 M Sorbitol, 1% (w/v) Carbomer 940, polymerized by addition of triethanolamine and adjusted to pH 7) to immobilize the organ and prevent the organ from drying out. The bottom of the hole was designed with a coverslide through which the organ was accessible for imaging. The animal body temperature was kept at 37° C. using a red lamp. Prior to imaging start, 18 mg/kg of 70 kDa Rhodaminedextran or 20 μl of Qtracker 655 vascular label dissolved in 0.9% (w/v) NaCl was injected retro-orbitally to identify the lobule orientation from the vascular flow pattern. To monitor the flux of CFDA in the liver, CFDA, dissolved in dimethyl sulfoxide (DMSO), was injected retro-orbitally at a dose of 0.2 mg/kg in a total volume of 50 μl. CFDA injection was performed slowly (approx. 30 sec) to avoid hydrodynamic effects and performed at 1 min after image acquisition start. […]
For data set [5] the following is noted: according to Breeuwer et al., 1995, considering a plasma membrane thickness of 4 nm; cited from earlier work.
Data set [6] deals with phosphorylated myosin light chain (pMLC). The data set is described as follows: Western blot of phosphorylated myosin light chain in liver tissue of treated mice. It counts as in vivo. As to conditions: 20 mg/kg Fasudil for 1.5 h, mouse liver. How it is done:
As controls, mice were administered 0.9% saline. […] Cell debris were removed by centrifugation for 10 min at 12 000×g at 4° C. and protein was denatured at 95° C. in presence of 100 mM dithiothreitol (DTT). A total of 10 μg protein was separated by sodium dodecyl sulfate polyacrylamide gel electrophoresis, and transferred onto a nitrocellulose membrane. Membranes were blocked and incubated with primary antibodies against glyceraldehyde 3-phosphate dehydrogenase (GAPDH, 1:2000) or phospho-myosin light chain (pMLC, 1:500) and HRP-conjugated secondary antibodies (1:10000) in 5% dry-milk, 10 mM Tris-HCl pH 8.0, 200 mM NaCl, 0.1% Tween20. Protein was detected using the enhanced chemiluminescence (ECL) detection kit (GE Healthcare, Buckinghamshire, UK) and chemiluminescence films (GE Healthcare, Buckinghamshire, UK) according to manufacturer's instructions. Plasma membrane contractility is determined by the cortical acto-myosin system ([…] et al., 2016; Tsukada and Phillips, 1993). […] Consequently, inhibition of acto-myosin contractility should affect biliary fluid dynamics. […] We next analyzed the BC network geometry on fixed liver tissue sections and found a dilation of BC in Fasudil-treated mice (FIG. 5B).
A general note: Immunoblotting shows a protein as a band on a membrane.

Setting [7] is: APAP 150 mg/kg i.p., 2 h, IVM of CF(DA) transport.

`CC(=O)Nc1ccc(O)cc1` [APAP, acetaminophen]: the “dilation of BC, CV zone” value in data set [1] (APAP 150 mg/kg i.p., 2 h, immersion fixed, CV zone, pvalue<0.01) is “up to 20%”. In addition, the “dilation of BC, MD zone” value in data set [1] (APAP 150 mg/kg i.p., 2 h, immersion fixed, MD zone, pvalue<0.0001) is given as not above 18%. Moreover, in data set [2] (setting [7]), the “bile velocity in the peri-portal zone” value is listed as “remained almost unaffected”; the “measured increase in bile velocity in the CV and MD zones” value is listed as 1.4-1.6 fold. For the same compound, the “effects on osmolite secretion” value in data set [2] (APAP treatment) is on record as “marginal”. In addition, the “maximum reported sub-toxic dose” value in data set [3] is listed as 150 mg/kg.
As to `O=C(O)c1ccc2c(c1)C1(OC2=O)c2ccc(O)cc2Oc2cc(O)ccc21` [CF, 6-carboxyfluorescein], in data set [4], the “time until cleared from the system” value is given as approximately 40 min and the “time until visible in the BC network” value lay within 3 to 5 min.
For `CC(=O)Oc1ccc2c(c1)Oc1cc(OC(C)=O)ccc1C21OC(=O)c2ccc(C(=O)O)cc21` [CFDA, 6-carboxyfluorecein-diacetate], the “time until detectable in the hepatocyte cytoplasm” value in data set [4] is “within seconds”. For the same compound, the “permeability coefficient Perm for uptake from the blood” value in data set [5] is 3 s⁻¹.
Turning to `O=S(=O)(c1cccc2cnccc12)N1CCCNCC1` [Fasudil], the “phosphorylated myosin light chain (pMLC) protein levels” value in data set [6] is reported as “reduction”. Also, in data set [1] (Fasudil 20 mg/kg i.p., 1.5 h, MD zone, pvalue<0.0001), the “BC radius increase as compared to control mice, MD zone” value was “up to 12%”. In data set [1] (Fasudil 20 mg/kg i.p., 1.5 h, PV zone, pvalue<0.001), the “BC radius increase as compared to control mice, PV zone” value is listed as not above 7%. Moreover, the “extrapolated BC radius at x=L, at(L)” value in data set [1] (Fasudil-treated mice, apparent radius at portal outlet) is reported as 1.422 μm. In addition, the “reduction of bile velocity across the CV-PV axis as compared to control mice” value in data set [2] (Fasudil 20 mg/kg i.p., 1.5 h, IVM of CF(DA) transport) was 50-58%. Moreover, the “apical CF transport” value in data set [2] (Fasudil-treated mice, IVM) is on record as “reduction”. Further, the “apical secretion fluxes summed over the entire CV-PV axis, Jt” value in data set [2] (Fasudil-treated, t=500 sec) was 0.0390 arbitrary intensity units per time. The “apical secretion flux of CF, CV zone” value in data set [2] (Fasudil-treated, t=500 sec, CV zone) was 0.0019 arbitrary intensity units per time. Also, the “apical secretion flux of CF, MD zone” value in data set [2] (Fasudil-treated, t=500 sec, MD zone) was 0.0312 arbitrary intensity units per time. The “apical secretion flux of CF, PV zone” value in data set [2] (Fasudil-treated, t=500 sec, PV zone) is given as 0.0059 arbitrary intensity units per time.
